The source of these data is patent publication US20240158391A1, “DERIVATIVES OF 4-(IMIDAZO[1,2-A]PYRIDIN-3-YL)-N-(PYRIDIN-3-YL) PYRIMIDIN-2- AMINE FOR TREATING PROLIFERATIVE DISEASES AND CONDITIONS” (AUCENTRA THERAPEUTICS PTY LTD, priority 2019, published 2024).

The structures appear in SMILES notation.

Assay [1] concerns MV-4-11. As to the kind of experiment: Proliferation assay (resazurin, leukemia cell lines), MV-4-11. The format is cell-based. Conditions: Homo sapiens, MV4-11, read-out: 72 h Growth inhibition GI50, MV-4-11 cells. The source says: The following compounds were used as comparators.
(In general: Alamar Blue is a resazurin reagent that responds to reducing activity.)

Assay [2] deals with CDK1/CyclinB (Homo sapiens, UniProt P06493). As to the kind of experiment: ADP Glo kinase assay, CDK1/CyclinB. It counts as biochemical. Conditions: for Ki: Km ATP, read-out: Enzymatic inhibition, Ki, CDK1 B. An outline of the steps: (§1)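 Dose-response used a threefold serial dilution of ten concentrations, 10-0.0005 μM, carrying 0.5% DMSO. Each room-temperature kinase reaction ran for a time optimised per enzyme and was then halted by adding ADP Glo reagent.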
Chain of CDK1/CyclinB (P06493 whole entry, species assumed): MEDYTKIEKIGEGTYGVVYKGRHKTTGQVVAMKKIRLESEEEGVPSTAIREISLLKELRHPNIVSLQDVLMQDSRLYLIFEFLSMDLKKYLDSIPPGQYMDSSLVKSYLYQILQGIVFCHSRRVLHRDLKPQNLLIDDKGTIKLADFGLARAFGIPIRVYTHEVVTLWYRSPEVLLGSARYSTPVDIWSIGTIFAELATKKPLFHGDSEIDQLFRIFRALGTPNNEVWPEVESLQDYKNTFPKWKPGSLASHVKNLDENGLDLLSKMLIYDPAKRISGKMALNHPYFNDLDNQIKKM
Chain of CDK1/CyclinB (P14635 whole entry partner, species assumed): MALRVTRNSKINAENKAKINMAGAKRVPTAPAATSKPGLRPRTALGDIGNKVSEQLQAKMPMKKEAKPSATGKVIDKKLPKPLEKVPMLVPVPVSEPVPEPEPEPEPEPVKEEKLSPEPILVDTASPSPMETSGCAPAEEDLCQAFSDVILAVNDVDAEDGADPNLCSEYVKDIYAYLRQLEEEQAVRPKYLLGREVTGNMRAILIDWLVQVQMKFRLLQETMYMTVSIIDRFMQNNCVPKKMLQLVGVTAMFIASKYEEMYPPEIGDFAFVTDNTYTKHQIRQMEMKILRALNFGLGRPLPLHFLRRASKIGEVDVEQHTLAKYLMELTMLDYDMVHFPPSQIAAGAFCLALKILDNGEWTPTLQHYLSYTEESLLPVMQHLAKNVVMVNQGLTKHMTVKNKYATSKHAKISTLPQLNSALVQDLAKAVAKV
For orientation: ADP-Glo first removes unused ATP, then detects ADP through luciferase.

Assay [3] concerns the target CDK4/CyclinD1 (Homo sapiens, UniProt P11802). The experiment in a line: ADP Glo kinase assay, CDK4/CyclinD1. It counts as biochemical. As to conditions: for Ki: Km ATP, read-out: Enzymatic inhibition, Ki, CDK4 D1; for remaining activity at 1 µM: compound at 1 μM, read-out: Residual enzymatic activity (%) at 1 μM, CDK4 D1. As for the experimental part:
Test compounds are used in 1:3 serial dilutions for 10 concentrations (from 10-0.0005 μM) in 0.5% DMSO. […] The kinase reactions are run for optimised time period at room temperature and then the reaction is stopped by adding 5 μL of ADP Glo reagent.

Assay [4] has as its target CDK9/CyclinT1 (Homo sapiens, UniProt P50750). As to the kind of experiment: ADP Glo kinase assay, CDK9/CyclinT1. It counts as biochemical. Conditions: for Ki: CDK9/CyclinT1, Km ATP, read-out: Enzymatic inhibition, Ki, CDK9 T1; for inhibition of CDK9 (in words): compared with comparator compounds A, B and C (N-(pyridin-2-yl)pyrimidin-2-amine moiety). An outline of the steps:
as §1

Assay [5] concerns the target CDK7/CyclinH/Mat1 (Homo sapiens, UniProt P50613). As to the kind of experiment: ADP Glo kinase assay, CDK7/CyclinH/Mat1. It counts as biochemical. Conditions: for Ki: Km ATP, read-out: Enzymatic inhibition, Ki, CDK7 H; for remaining activity at 1 µM: compound at 1 μM, read-out: Residual enzymatic activity (%) at 1 μM, CDK7 H. Put shortly:
as §1

Assay [6] deals with T1, FLT3-ITD (Homo sapiens, UniProt P36888).
T1 sequence (P36888 1-993): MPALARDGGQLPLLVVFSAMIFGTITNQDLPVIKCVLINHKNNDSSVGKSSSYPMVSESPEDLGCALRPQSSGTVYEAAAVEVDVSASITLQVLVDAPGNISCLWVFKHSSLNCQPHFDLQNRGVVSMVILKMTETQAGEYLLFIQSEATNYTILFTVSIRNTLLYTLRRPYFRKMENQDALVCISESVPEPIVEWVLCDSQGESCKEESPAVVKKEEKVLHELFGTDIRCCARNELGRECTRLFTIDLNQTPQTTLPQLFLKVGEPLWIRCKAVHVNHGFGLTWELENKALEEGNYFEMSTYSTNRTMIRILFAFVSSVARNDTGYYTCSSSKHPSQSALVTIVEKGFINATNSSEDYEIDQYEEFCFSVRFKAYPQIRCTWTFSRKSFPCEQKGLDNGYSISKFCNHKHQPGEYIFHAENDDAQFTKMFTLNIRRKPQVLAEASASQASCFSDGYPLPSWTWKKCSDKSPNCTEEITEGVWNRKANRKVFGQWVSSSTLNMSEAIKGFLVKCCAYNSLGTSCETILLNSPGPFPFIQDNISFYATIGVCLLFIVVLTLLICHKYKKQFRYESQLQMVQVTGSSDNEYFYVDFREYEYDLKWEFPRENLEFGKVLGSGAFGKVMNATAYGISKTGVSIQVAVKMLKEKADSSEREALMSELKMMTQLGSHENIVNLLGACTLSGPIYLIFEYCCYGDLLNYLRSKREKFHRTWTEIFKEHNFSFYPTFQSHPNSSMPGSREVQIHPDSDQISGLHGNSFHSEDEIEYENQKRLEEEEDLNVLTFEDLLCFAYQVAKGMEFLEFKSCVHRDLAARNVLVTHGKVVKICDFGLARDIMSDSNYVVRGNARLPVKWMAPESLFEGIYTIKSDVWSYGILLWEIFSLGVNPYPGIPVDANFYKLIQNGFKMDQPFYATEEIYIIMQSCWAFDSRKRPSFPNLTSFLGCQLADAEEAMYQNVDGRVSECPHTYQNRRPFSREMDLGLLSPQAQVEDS
As to the kind of experiment: ADP Glo kinase assay, FLT3-ITD. The format is biochemical. As to conditions: Km ATP 100 μM, read-out: Enzymatic inhibition, Ki, FLT3-ITD. Put shortly: as §1

Assay [7] concerns the target CDK6/CyclinD3 (Homo sapiens, UniProt Q00534). As to the kind of experiment: ADP Glo kinase assay, CDK6/CyclinD3. The format is biochemical. As to conditions: Km ATP, read-out: Enzymatic inhibition, Ki, CDK6 D3. An outline of the steps:
as §1

Assay [8] addresses CDK2/CyclinA2 (Homo sapiens, UniProt P24941). As to the kind of experiment: ADP Glo kinase assay, CDK2/CyclinA2. It counts as biochemical. As to conditions: for Ki: Km ATP, read-out: Enzymatic inhibition, Ki, CDK2 A. Put shortly: as §1

Chain of CDK4/CyclinD1 (P11802 whole entry, species assumed): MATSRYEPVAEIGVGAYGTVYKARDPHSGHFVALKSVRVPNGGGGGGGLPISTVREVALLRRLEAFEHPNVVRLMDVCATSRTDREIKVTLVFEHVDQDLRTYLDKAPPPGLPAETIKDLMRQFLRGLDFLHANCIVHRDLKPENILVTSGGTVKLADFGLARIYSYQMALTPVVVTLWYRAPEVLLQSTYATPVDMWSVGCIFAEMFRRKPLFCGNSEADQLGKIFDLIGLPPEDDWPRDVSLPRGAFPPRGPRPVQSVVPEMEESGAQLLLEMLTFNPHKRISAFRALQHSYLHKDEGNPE
Chain of CDK4/CyclinD1 (P24385 whole entry partner, species assumed): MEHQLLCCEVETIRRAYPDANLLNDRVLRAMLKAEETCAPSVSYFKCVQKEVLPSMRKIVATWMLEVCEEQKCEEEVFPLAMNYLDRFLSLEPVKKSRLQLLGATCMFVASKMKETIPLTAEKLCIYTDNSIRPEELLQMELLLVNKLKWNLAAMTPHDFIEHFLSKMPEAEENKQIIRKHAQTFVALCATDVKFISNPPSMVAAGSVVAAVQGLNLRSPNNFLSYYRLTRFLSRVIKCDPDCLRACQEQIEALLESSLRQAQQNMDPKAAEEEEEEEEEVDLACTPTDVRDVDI
Chain of CDK9/CyclinT1 (P50750 whole entry, species assumed): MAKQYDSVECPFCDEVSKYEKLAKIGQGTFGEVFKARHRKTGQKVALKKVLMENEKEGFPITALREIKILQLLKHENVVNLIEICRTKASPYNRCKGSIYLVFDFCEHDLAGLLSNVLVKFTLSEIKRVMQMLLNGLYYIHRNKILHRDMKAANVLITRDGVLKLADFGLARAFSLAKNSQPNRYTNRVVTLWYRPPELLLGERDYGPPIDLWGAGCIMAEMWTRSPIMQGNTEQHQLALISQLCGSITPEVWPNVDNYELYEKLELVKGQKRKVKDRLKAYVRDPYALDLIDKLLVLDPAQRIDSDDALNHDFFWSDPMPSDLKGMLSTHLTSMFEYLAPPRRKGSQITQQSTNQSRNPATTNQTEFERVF
Chain of CDK9/CyclinT1 (O60563 whole entry partner, species assumed): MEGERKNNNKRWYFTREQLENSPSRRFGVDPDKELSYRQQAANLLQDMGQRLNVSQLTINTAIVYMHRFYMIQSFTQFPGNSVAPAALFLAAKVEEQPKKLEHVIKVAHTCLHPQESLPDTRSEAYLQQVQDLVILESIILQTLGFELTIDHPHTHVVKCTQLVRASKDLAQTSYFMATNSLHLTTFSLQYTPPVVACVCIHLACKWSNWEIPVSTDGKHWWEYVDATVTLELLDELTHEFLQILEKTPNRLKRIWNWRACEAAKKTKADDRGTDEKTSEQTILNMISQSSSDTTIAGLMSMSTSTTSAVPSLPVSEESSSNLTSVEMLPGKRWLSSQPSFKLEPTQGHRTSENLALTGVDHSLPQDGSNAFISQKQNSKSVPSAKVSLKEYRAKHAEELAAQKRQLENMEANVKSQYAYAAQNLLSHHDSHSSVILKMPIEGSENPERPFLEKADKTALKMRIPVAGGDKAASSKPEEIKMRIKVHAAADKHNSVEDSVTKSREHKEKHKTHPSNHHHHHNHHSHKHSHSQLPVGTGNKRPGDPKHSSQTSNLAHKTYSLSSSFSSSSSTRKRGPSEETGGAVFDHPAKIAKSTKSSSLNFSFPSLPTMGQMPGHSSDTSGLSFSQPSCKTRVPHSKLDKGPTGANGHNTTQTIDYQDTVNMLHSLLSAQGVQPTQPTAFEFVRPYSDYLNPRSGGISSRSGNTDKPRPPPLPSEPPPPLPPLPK
Chain of CDK7/CyclinH/Mat1 (P50613 whole entry, species assumed): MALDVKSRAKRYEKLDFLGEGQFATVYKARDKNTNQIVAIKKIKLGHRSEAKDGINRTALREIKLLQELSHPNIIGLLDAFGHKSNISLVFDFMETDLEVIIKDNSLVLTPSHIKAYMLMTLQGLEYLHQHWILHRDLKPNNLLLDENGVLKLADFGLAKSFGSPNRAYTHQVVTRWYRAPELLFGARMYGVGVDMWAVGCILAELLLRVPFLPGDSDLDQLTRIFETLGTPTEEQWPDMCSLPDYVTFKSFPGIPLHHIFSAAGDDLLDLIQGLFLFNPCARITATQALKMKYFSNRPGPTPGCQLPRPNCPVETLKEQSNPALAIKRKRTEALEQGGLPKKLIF
Chain of CDK7/CyclinH/Mat1 (P51946 whole entry partner, species assumed): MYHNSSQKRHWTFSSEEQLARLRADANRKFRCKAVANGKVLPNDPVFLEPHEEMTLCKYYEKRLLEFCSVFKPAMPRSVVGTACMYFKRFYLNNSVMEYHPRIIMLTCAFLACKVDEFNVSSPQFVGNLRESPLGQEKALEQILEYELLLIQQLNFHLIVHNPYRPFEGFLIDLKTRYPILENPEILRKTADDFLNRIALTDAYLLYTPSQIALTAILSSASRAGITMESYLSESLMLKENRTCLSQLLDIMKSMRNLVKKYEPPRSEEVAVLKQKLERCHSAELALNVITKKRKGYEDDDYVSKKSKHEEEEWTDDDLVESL
Chain of CDK7/CyclinH/Mat1 (P51948 whole entry partner, species assumed): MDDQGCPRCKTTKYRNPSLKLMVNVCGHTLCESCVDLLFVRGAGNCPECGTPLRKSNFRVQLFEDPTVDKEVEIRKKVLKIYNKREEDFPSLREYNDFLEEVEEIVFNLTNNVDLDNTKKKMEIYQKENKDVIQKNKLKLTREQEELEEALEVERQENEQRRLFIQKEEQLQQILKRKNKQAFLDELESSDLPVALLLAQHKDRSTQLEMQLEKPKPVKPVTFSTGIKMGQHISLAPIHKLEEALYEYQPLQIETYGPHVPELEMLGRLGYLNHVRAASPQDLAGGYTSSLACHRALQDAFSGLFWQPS
Chain of CDK6/CyclinD3 (Q00534 whole entry, species assumed): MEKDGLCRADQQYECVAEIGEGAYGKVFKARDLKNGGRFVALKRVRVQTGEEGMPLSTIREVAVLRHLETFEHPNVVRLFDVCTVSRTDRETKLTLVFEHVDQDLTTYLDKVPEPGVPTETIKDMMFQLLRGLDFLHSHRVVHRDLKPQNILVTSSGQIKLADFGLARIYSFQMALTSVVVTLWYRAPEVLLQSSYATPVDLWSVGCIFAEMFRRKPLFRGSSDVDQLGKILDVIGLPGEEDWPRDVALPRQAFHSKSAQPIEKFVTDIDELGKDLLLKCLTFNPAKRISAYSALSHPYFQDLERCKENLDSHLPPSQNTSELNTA
Chain of CDK6/CyclinD3 (P30281 whole entry partner, species assumed): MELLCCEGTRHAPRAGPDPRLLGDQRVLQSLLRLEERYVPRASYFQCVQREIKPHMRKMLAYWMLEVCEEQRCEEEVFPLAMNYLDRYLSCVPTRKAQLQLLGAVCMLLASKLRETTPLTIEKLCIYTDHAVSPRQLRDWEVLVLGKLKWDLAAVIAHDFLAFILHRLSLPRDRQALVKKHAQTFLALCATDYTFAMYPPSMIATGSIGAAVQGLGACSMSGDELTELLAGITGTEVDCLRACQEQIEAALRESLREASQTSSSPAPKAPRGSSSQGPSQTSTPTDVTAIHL

Turning to `CN1CCN(c2ccc(Nc3nccc(-c4cnc5ccc(-c6ccccc6)cn45)n3)cn2)CC1` [Compound 6, N-(6-(4-Methylpiperazin-1-yl)pyridin-3-yl)-4-(6-phenylimidazo[1,2-a]pyridin-3-yl)pyrimidin-2-amine], in assay [1], the GI50 turned out to be 4 nM. For the same molecule, the Ki is 265 nM in assay [2]; 229 nM in assay [3]; less than 0.1 nM in assay [4]; 238 nM in assay [5]; 4 nM in assay [6]; more than 5000 nM in assay [7]. Also, the Ki in assay [8] worked out at 177 nM. Further, the “inhibition of CDK9 (in words)” value in assay [4] was “dramatically and surprisingly increased the potency of inhibition of CDK9”.

Consider `CN1CCN(c2ccc(Nc3nccc(-c4cnc5ccc(-c6cccnc6)cn45)n3)cn2)CC1` [Compound 7, N-(6-(4-Methylpiperazin-1-yl)pyridin-3-yl)-4-(6-(pyridin-3-yl)imidazo[1,2-a]pyridin-3-yl)pyrimidin-2-amine], for which the GI50 in assay [1] was 29 nM. The Ki in assay [2] is 1100 nM; in assay [3], more than 500 nM; in assay [4] it was 0.4 nM; in assay [5], 2730 nM; in assay [6] it was 4 nM; in assay [7], 2160 nM. Also, in assay [8], the Ki is 825 nM. Moreover, the “inhibition of CDK9 (in words)” value in assay [4] was “dramatically and surprisingly increased the potency of inhibition of CDK9”.

`CN1CCN(c2ccc(Nc3nccc(-c4cnc5ccc(-c6cncnc6)cn45)n3)cn2)CC1` [Compound 8, N-(6-(4-Methylpiperazin-1-yl)pyridin-3-yl)-4-(6-(pyrimidin-5-yl)imidazo[1,2-a]pyridin-3-yl)pyrimidin-2-amine]: the GI50 in assay [1] is 19 nM. Also, the Ki in assay [2] was more than 5000 nM; in assay [3], more than 500 nM; in assay [4], 6 nM; in assay [5] it was more than 5000 nM; in assay [6], 31 nM; in assay [7] it was more than 5000 nM. Further, the Ki in assay [8] stood at 2860 nM.

Consider `CC(=O)N1CCN(c2ccc(Nc3ncc(F)c(-c4cnc5ccccn45)n3)cn2)CC1` [Compound 10, 1-(4-(5-((5-Fluoro-4-(imidazo[1,2-a]pyridin-3-yl)pyrimidin-2-yl)amino)pyridin-2-yl)piperazin-1-yl)ethan-1-one], for which, in assay [1], the GI50 turned out to be 6 nM. In addition, the Ki in assay [2] was 61 nM; in assay [3], more than 500 nM; in assay [4], 50 nM; in assay [5] it was 895 nM; in assay [6], 18 nM; in assay [7], 451 nM. Also, in assay [8], the Ki came to 2 nM.

As for `CC(=O)N1CCN(c2ccc(Nc3ncc(C)c(-c4cnc5ccccn45)n3)cn2)CC1` [Compound 11, 1-(4-(5-((4-(Imidazo[1,2-a]pyridin-3-yl)-5-methylpyrimidin-2-yl)amino)pyridin-2-yl)piperazin-1-yl)ethan-1-one], in assay [1], the GI50 stood at 88 nM. Further, the remaining activity at 1 µM in assay [2] (compound at 1 μM, read-out: Residual enzymatic activity (%) at 1 μM, CDK1 B) was found to be 54%; in assay [3], 21%; in assay [5], 20%. For the same molecule, the Ki is 1340 nM in assay [4], 20 nM in assay [6], 1010 nM in assay [7] and 101 nM in assay [8].

As to `CN1CCN(c2ccc(Nc3nccc(-c4cnc5ccc(F)cn45)n3)cn2)CC1` [Compound 12, 4-(6-Fluoroimidazo[1,2-a]pyridin-3-yl)-N-(6-(4-methylpiperazin-1-yl)pyridin-3-yl) pyrimidin-2-amine], the GI50 in assay [1] is 13 nM. The Ki in assay [2] is 865 nM; in assay [3], 380 nM; in assay [4], 29 nM; in assay [5], 1720 nM; in assay [6] it was 7 nM; in assay [7] it was 779 nM. Besides, in assay [8], the Ki is 156 nM.

Regarding `Cc1cnc(Nc2ccc(N3CCNCC3)nc2)nc1-c1cnc2ccccn12` [Compound 13, 4-(Imidazo[1,2-a]pyridin-3-yl)-5-methyl-N-(6-(piperazin-1-yl)pyridin-3-yl)pyrimidin-2-amine], in assay [1], the GI50 is 7 nM. Further, the Ki in assay [2] came out at 500 nM; in assay [3], 408 nM; in assay [4], 494 nM; in assay [5] it was 410 nM; in assay [6], 6 nM; in assay [7], 299 nM. In assay [8], the Ki came to 170 nM.

In the case of `Cc1cnc(Nc2ccc(N3CCOCC3)nc2)nc1-c1cnc2ccccn12` [Compound 14, 4-(Imidazo[1,2-a]pyridin-3-yl)-5-methyl-N-(6-morpholinopyridin-3-yl)pyrimidin-2-amine], the GI50 in assay [1] is 49 nM. Moreover, the Ki in assay [2] was 150 nM; in assay [4] it was more than 5000 nM; in assay [5], 1730 nM; in assay [6], 9 nM; in assay [7] it was 1600 nM; in assay [8], 64 nM. In addition, the remaining activity at 1 µM in assay [3] came out at 50%.

In the case of `Fc1cnc(Nc2ccc(N3CCOCC3)nc2)nc1-c1cnc2ccccn12` [Compound 15, 5-Fluoro-4-(imidazo[1,2-a]pyridin-3-yl)-N-(6-morpholinopyridin-3-yl)pyrimidin-2-amine], the 50% growth inhibitory concentration (GI50) in assay [1] is 20 nM. In addition, the Ki was 10 nM in assay [2]; 543 nM in assay [3]; 234 nM in assay [4]; 1630 nM in assay [5]; 15 nM in assay [6]; 1000 nM in assay [7]. The Ki in assay [8] came out at 3 nM.

In the case of `CS(=O)(=O)N1CCN(c2ccc(Nc3nccc(-c4cnc5ccc(-c6ccccc6)cn45)n3)cn2)CC1` [Compound 17, N-(6-(4-(Methylsulfonyl)piperazin-1-yl)pyridin-3-yl)-4-(6-phenylimidazo[1,2-a]pyridin-3-yl)pyrimidin-2-amine], the GI50 in assay [1] turned out to be 6 nM. Also, the Ki in assay [2] is more than 5000 nM; in assay [3] it was more than 500 nM; in assay [4] it was 28 nM; in assay [5] it was more than 1000 nM; in assay [6] it was 16 nM; in assay [7] it was more than 5000 nM. Also, the Ki in assay [8] is more than 1000 nM.

Consider `CS(=O)(=O)N1CCN(c2ccc(Nc3nccc(-c4cnc5ccc(-c6ccncc6)cn45)n3)cn2)CC1` [Compound 18, N-(6-(4-(Methylsulfonyl)piperazin-1-yl)pyridin-3-yl)-4-(6-(pyridin-4-yl)imidazo[1,2-a]pyridin-3-yl)pyrimidin-2-amine], for which the GI50 in assay [1] was 1 nM. The Ki in assay [2] was 450 nM; in assay [4], 21 nM; in assay [6], 27 nM; in assay [7], more than 5000 nM; in assay [8], 557 nM. Also, the values for the remaining activity at 1 µM in assay [3] and in assay [5] were 47% and 28%, respectively.

In the case of `CS(=O)(=O)N1CCN(c2ccc(Nc3nccc(-c4cnc5ccc(-c6cccnc6)cn45)n3)cn2)CC1` [Compound 19, N-(6-(4-(Methylsulfonyl)piperazin-1-yl)pyridin-3-yl)-4-(6-(pyridin-3-yl)imidazo[1,2-a]pyridin-3-yl)pyrimidin-2-amine], in assay [1], the GI50 came out at 17 nM. The Ki is 776 nM in assay [2]; 16 nM in assay [4]; 1690 nM in assay [5]; 4 nM in assay [6]; more than 5000 nM in assay [7]. Further, the remaining activity at 1 µM in assay [3] was 83%; in assay [8] (compound at 1 μM, read-out: Residual enzymatic activity (%) at 1 μM, CDK2 A), 33%.

Usually GI50 stands for the concentration giving 50% growth inhibition. What is called Ki is the dissociation constant of the complex between target and ligand, obtained from inhibition or displacement.
